Test [1] concerns the target T1, Muscarinic acetylcholine receptor M4 (Homo sapiens, UniProt P08173).
T1 sequence (P08173 whole entry): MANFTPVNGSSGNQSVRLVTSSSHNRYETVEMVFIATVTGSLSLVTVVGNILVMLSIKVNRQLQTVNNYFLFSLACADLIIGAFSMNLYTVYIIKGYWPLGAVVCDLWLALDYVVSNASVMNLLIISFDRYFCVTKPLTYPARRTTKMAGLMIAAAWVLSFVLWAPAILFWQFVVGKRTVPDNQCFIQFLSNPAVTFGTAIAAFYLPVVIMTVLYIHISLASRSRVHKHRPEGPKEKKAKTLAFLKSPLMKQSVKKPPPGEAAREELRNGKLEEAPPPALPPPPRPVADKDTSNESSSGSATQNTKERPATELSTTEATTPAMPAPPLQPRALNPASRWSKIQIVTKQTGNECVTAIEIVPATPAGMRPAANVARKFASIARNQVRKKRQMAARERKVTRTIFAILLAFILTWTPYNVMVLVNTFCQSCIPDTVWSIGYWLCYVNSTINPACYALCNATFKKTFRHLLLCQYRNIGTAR
Briefly: Displacement of [3H]-NMS from muscarinic M4 receptor (unknown origin) expressed in NG108-15 cells by scintillation counting analysis. The format is cell-based.

In test [2] the target is T2, Muscarinic acetylcholine receptor M2 (Homo sapiens, UniProt P08172). Briefly: Displacement of [3H]-NMS from muscarinic M2 receptor (unknown origin) expressed in A9 cells by scintillation counting analysis. The format is cell-based. (Displacement assays read how much labelled ligand stays bound in the presence of the test substance.)
The target in test [3] is T2, Muscarinic acetylcholine receptor M2. Briefly: Displacement of [3H]NMS from human recombinant muscarinic receptor M2 expressed in CHO-K9 cell membranes measured after 3 hrs by radioligand competition binding assay. Also on record: species or system Membrane.
In test [4] the target is T3, Muscarinic acetylcholine receptor M1 (Homo sapiens, UniProt P11229).
T3 sequence (P11229 whole entry): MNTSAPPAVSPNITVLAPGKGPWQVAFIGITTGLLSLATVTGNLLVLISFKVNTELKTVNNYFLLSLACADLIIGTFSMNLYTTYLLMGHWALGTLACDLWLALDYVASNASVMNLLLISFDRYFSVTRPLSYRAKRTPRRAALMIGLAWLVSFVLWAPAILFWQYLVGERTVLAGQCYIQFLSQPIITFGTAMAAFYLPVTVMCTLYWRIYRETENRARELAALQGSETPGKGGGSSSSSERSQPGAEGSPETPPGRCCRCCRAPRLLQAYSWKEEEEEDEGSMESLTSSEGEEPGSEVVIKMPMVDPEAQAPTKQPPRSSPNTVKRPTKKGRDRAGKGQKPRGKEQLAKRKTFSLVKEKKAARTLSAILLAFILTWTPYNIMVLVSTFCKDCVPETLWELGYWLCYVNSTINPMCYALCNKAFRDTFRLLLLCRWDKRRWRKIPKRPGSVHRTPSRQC
Briefly: Displacement of [3H]NMS from human recombinant muscarinic receptor M1 expressed in CHO-K9 cell membranes measured after 3 hrs by radioligand competition binding assay. Also on record: species or system Membrane.

The target of test [5] is T4, Muscarinic acetylcholine receptor M2 (Homo sapiens, UniProt P08172).
T4 sequence (P08172 whole entry): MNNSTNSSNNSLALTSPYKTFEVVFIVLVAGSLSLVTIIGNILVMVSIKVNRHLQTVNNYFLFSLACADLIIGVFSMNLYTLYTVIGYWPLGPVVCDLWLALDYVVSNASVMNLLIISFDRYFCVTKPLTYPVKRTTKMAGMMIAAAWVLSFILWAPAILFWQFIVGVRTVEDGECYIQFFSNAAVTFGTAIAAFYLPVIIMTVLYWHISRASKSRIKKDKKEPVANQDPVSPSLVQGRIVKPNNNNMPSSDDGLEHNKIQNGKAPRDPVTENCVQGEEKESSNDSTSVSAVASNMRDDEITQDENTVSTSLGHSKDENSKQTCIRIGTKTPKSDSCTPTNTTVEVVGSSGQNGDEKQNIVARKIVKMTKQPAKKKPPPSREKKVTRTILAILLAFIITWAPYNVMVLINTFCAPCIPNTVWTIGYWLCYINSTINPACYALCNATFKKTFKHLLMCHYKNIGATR
As to the kind of experiment: Binding affinity to human muscarinic M2 receptor expressed in CHO-K9 cells assessed as unspecific binding at Kd incubated in dark at 22 degree C for 2 hrs in presence of atropine by FACSCantoII flow cytometric saturation binding study relative to control. It is filed as cell-based. A general note: Flow cytometry measures light scatter and fluorescence of single cells or particles in a stream.

The target in test [6] is T1, Muscarinic acetylcholine receptor M4. As to the kind of experiment: Displacement of [3H]NMS from human recombinant muscarinic receptor M4 expressed in CHO-K9 cell membranes measured after 3 hrs by radioligand competition binding assay. Also on record: species or system Membrane.
The target in test [7] is Muscarinic acetylcholine receptor M3 (Homo sapiens, UniProt P20309). Briefly: Displacement of [3H]NMS from human recombinant muscarinic receptor M3 expressed in CHO-K9 cell membranes measured after 3 hrs by radioligand competition binding assay. Also on record: species or system Membrane.
The target of test [8] is T5, Muscarinic acetylcholine receptor M5 (Homo sapiens, UniProt P08912).
T5 sequence (P08912 whole entry): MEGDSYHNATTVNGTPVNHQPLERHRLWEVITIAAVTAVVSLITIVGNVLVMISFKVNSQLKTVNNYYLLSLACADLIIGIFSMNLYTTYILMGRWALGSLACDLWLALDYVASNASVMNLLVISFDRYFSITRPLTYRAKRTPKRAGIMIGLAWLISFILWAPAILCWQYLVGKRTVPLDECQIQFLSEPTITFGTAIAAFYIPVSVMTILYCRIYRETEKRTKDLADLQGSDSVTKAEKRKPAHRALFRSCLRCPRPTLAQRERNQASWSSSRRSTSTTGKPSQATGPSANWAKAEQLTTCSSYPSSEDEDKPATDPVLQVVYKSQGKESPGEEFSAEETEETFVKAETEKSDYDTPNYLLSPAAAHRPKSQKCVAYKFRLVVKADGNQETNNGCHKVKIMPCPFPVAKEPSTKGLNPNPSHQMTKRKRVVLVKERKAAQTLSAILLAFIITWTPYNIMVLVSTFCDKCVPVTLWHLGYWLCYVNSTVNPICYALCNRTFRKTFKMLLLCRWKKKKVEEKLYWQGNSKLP
Briefly: Displacement of [3H]NMS from human recombinant muscarinic receptor M5 expressed in CHO-K9 cell membranes measured after 3 hrs by radioligand competition binding assay. Also on record: species or system Membrane.

The target of test [9] is T4, Muscarinic acetylcholine receptor M2. As to the kind of experiment: Binding affinity to human muscarinic M2 receptor expressed in CHO-K9 cells assessed as unspecific binding at Kd incubated in dark at 22 degree C for 2 hrs in presence of atropine by FACSCalibur flow cytometric saturation binding study relative to control. The format is cell-based.

Structures are written as SMILES.

Muscarinic acetylcholine receptor M3, sequence (P20309 whole entry): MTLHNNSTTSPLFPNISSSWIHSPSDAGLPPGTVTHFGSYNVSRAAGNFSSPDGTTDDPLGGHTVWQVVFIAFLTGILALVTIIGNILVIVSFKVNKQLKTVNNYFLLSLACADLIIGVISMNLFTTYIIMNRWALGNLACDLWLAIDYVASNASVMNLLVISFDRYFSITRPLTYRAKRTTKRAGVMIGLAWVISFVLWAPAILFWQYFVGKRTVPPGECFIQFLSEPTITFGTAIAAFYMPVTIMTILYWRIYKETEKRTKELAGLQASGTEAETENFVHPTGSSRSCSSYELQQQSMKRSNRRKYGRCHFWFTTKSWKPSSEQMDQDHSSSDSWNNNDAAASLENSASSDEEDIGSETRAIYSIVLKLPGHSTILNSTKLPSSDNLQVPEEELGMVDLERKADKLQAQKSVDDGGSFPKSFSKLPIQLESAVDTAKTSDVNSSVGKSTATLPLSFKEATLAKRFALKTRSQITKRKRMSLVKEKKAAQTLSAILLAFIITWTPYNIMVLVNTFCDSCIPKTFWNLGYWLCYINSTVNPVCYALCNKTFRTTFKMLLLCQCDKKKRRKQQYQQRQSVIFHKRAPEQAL

One may read the Ki as a measure of affinity in units of concentration, obtained from inhibition or displacement. As for `CCN(CC)CCCCC1CCN(CC(=O)N2c3ccccc3NC(=O)c3ccccc32)CC1`, the values for the inhibitory constant (Ki) in [1] and in test [2] were 2 nM and 0.316 nM, respectively.

Consider `Cc1scc2c1N(C(=O)CN1CCN(CCCCCCCCCCNC(=O)Cc3ccc4c(c3)C(C)(C)C3=C5C=C6C7=[N+](CCC6OC5CCN34)c3ccc(S(=O)(=O)[O-])cc3C7(C)C)CC1)c1ccccc1NC2=O` (stereo not given), for which the Ki in test [3] was 0.0398 nM; in test [4], 0.0316 nM.

For `NCCN1CCN(CCCCC2CCN(CC(=O)N3c4ccccc4NC(=O)c4ccccc43)CC2)CC1`, the Ki in test [3] is 0.562 nM.

In the case of `Cc1cc(/C=C/C=C/c2ccc(N(C)C)cc2)cc(C)[n+]1CCN1CCN(CCCCC2CCN(CC(=O)N3c4ccccc4NC(=O)c4ccccc43)CC2)CC1`, the results for the Kd in test [5] (read-out: Kd) and in test [5] (read-out: pKd (converted)) were 1.4 nM and 2.34 nM, respectively.

Turning to `O=C(CCCCCNC(=O)COc1ccc(/C=C/C2=[N+]3C(=Cc4ccc(-c5cccs5)n4[B-]3(F)F)C=C2)cc1)NCCNC(=O)CCc1cn(CCCCC2CCN(CC(=O)N3c4ccccc4NC(=O)c4ccccc43)CC2)cn1`, the Ki in [6] is 0.417 nM; in [7], 37.2 nM; in test [8], 10 nM; in [3], 0.692 nM; in [4], 1 nM. Besides, the Kd was 4.5 nM in test [5] (read-out: Kd) and 3.89 nM in test [5] (read-out: pKd (converted)).

For the compound `Cc1cc(/C=C/c2cc3c4c(c2)CCCN4CCC3)cc(C)[n+]1CCNC(=O)CCc1cn(CCCCC2CCN(CC(=O)N3c4ccccc4NC(=O)c4ccccc43)CC2)cn1`, the Ki is 2.63 nM in test [6]; 69.2 nM in test [7]; 40.7 nM in [8]; 1.35 nM in test [3]; 7.08 nM in test [4]. Moreover, the Kd in test [5] (read-out: Kd) is 3.8 nM; in [5] (read-out: pKd (converted)), 2 nM.

In the case of `Cc1cc(/C=C/c2cc3c4c(c2)CCCN4CCC3)cc(C)[n+]1CCN1CCN(CCCCC2CCN(CC(=O)N3c4ccccc4NC(=O)c4ccccc43)CC2)CC1`, the Ki in test [6] is 2.69 nM; in test [7] it was 63.1 nM; in test [8] it was 126 nM; in test [3], 0.955 nM; in test [4] it was 4.79 nM. The Kd in test [5] (read-out: Kd) is 1.9 nM; in [5] (read-out: pKd (converted)) it was 0.646 nM.

Consider `Cc1cc(/C=C/C=C/c2ccc(N(C)C)cc2)cc(C)[n+]1CCNC(=O)CCc1cn(CCCCC2CCN(CC(=O)N3c4ccccc4NC(=O)c4ccccc43)CC2)cn1`, for which the inhibition constant (Ki) in test [6] was 4.27 nM; in test [7], 85.1 nM; in test [8] it was 70.8 nM; in test [3], 0.912 nM; in [4], 4.9 nM. The Kd in [5] (read-out: Kd) worked out at 2 nM.

In the case of `CN(C)c1ccc2c(-c3ccc(C(=O)NCCN4CCN(CCCCC5CCN(CC(=O)N6c7ccccc7NC(=O)c7ccccc76)CC5)CC4)cc3C(=O)[O-])c3ccc(=[N+](C)C)cc-3oc2c1`, the Ki is 0.977 nM in test [6]; 81.3 nM in [7]; 178 nM in test [8]; 0.24 nM in [3]; 2.57 nM in [4]. The figures for the Kd in test [9] (read-out: Kd) and in test [9] (read-out: pKd (converted)) were 0.6 nM and 1.38 nM, respectively.

In the case of `CN(C)c1ccc2c(-c3ccc(C(=O)NCCNC(=O)CCc4cn(CCCCC5CCN(CC(=O)N6c7ccccc7NC(=O)c7ccccc76)CC5)cn4)cc3C(=O)[O-])c3ccc(=[N+](C)C)cc-3oc2c1`, the Ki in [6] was 3.72 nM; in [7], 129 nM; in test [8] it was 275 nM; in test [3] it was 1.78 nM; in test [4], 6.17 nM. The figures for the Kd in [5] (read-out: Kd) and in test [5] (read-out: pKd (converted)) were 2.4 nM and 4.37 nM, respectively.

On to `Cc1scc2c1N(C(=O)CN1CCN(CCCCCCCCCCNC(=O)c3ccc(-c4c5ccc(=N)c(S(=O)(=O)O)c-5oc5c(S(=O)(=O)O)c(N)ccc45)c(C(=O)O)c3)CC1)c1ccccc1NC2=O`, for which the Ki is 1.58 nM in [3] and 0.501 nM in test [4].

For the origin of these results see ChEMBL document CHEMBL4715686, “Differently fluorescence-labelled dibenzodiazepinone-type muscarinic acetylcholine receptor ligands with high M2R affinity” (RSC Med Chem, 2020).
